Patent US20250082618A1, “DOSING REGIMENS USING TOPICAL ROFLUMILAST COMPOSITIONS” (ARCUTIS BIOTHERAPEUTICS, INC., priority 2023, published 2025)

Tested on: patients with atopic dermatitis
Experiment: Phase III open-label trial: vIGA-AD, maintenance (BIW) dosing and disease control
Assay type: in vivo, human
Experimental: The vIGA-AD is a static evaluation of qualitative overall AD severity. This global assessment scale is an ordinal scale with five severity grades (reported only in integers of 0 to 4). Each grade is defined by a distinct and clinically relevant morphologic description that minimizes inter-observer variability (see Table 1). vIGA-AD is evaluated for the entire body except the scalp, palms, and soles.
A Phase III, multicenter, open-label clinical trial was carried out to investigate the use of a topical roflumilast emollient cream to treat patients with atopic dermatitis. The primary objective of this study was to assess long-term safety in a multicenter, open-label, single-arm study in subjects with atopic dermatitis treated with either […] (for subjects ≥6 years of age) or 0.05% (for subjects between 2 to 5 years of age) topical roflumilast cream.
The primary endpoints of the study were adverse events or serious adverse events. The secondary endpoints of this study were validated investigator Global assessment-atopic dermatitis (“vIGA-AD”) value 0 or 1 at each assessment, vIGA-AD success (defined as vIGA-AD value of 0 or 1 plus a 2-grade improvement from baseline), Worst Itch-Numeric Rating Score (“WI-NRS”) score over time, and Eczema Area and Severity Index (“EASI”) score over time.
All patients enrolled in this phase III study applied either a 0.15% or 0.05% roflumilast topical cream once daily until Week 4 of the study. Patients between 2-5 years of age received 0.05% roflumilast topical cream and patients 6 years of age or older received 0.15% roflumilast. Subjects who reached 6 years of age during the study were switched from 0.05% to 0.15% roflumilast topical cream at the first scheduled clinical visit following their sixth birthday. Study medication was applied for up to 24 or 52 weeks to all affected areas, except on the scalp. Beginning at the Week 4 visit, any subject who achieved vIGA-AD of 0 as confirmed by the Investigator at a scheduled or unscheduled clinical visit, was switched from daily to twice weekly administration of roflumilast topical cream. Instructions for the twice weekly administration were to apply the roflumilast topical cream on two nonconsecutive days per week (e.g. Monday and Thursday) to areas commonly and/or most recently affected by atopic dermatitis and any areas where atopic dermatitis was developing.
Clinical visits and phone contact were scheduled at Weeks 4, 12, 18, 24, 30, 36, 44, and 52 of the study. At clinical visits, subjects receiving twice weekly treatment (“maintenance treatment”) were permitted to continue maintenance treatment if vIGA-AD was either 0 or 1. Subjects evaluated at clinical visits with vIGA-AD 2 or greater were instructed to resume daily administration of roflumilast topical cream. Patients were also permitted to resume daily dosing, despite a vIGA-AD of 1, if signs or symptoms of atopic dermatitis were not adequately controlled with maintenance therapy.
Median duration of the first maintenance dosing period was ≥124 days for the 24-week cohort and ≥270 days for the 52-week cohort. 65% percent of these patients were on a maintenance dosing regimen through the final visit. Disease control was defined as a vIGA-AD score of 0, a switch to a maintenance dosing regimen, and a maintenance of a vIGA-AD score of 0 or 1.

## O=C(Nc1c(Cl)cncc1Cl)c1ccc(OC(F)F)c(OCC2CC2)c1 [roflumilast, N-(3,5-dichloropyrid-4-yl)-3-cyclopropylmethoxy-4-difluoromethoxybenzamide]
24-week cohort
  Median duration of the first maintenance (BIW) dosing period: ≥ 124 days
52-week cohort
  Median duration of the first maintenance (BIW) dosing period: ≥ 270 days
By Week 24 and Week 52
  number of patients who achieved vIGA-AD=0 and switched to maintenance (BIW) dosing: 132
By Week 24 and Week 52, once daily, twice weekly after vIGA-AD 0
  patients who achieved vIGA-AD=0 and switched to maintenance (BIW) dosing: 20.1%
Of the 132 patients who switched
  patients on maintenance (BIW) dosing regimen through the final visit: 65%
